Assay results: EP1311531B1, “STEROID DERIVED ANTIBIOTICS” (Brigham Young University, priority 2000, dated 2002)
≈ marks a conversion by molar mass, not a printed value. Like-named read-outs stand apart in the source and are kept apart here.

Assays:
E. coli (ATCC 10798) [1] = test: MIC and MBC measurement; format: cell-based, Escherichia coli
Protocol: (§1) General: Microorganisms. Reference strains were purchased from the American Type Culture Collection (Rockville, MD) or Bactrol disks from Difeo Laboratories (Detroit, MI). […] Bacterial strains were maintained on Mueller-Hinton agar plates, and Candida albicans was maintained on Sabouraud Dextrose agar plates.
(§2) Aliquots (20 mL) of the homogeneous solution were then poured in sterile plastic petri dishes (100 x 15 mm, Fisher Scientific). Solutions of compounds were made by dissolving the HCl salt of the respective compound into an appropriate amount of deionized and sterilized water followed by microfiltration.
(§3) Aliquots of 1 mL of the suspension were added to test tubes containing 1 mL TSB and incrementally varied concentrations of cholic acid derivatives and/or erythromycin or novobiocin. […] Additionally, an alliquot from each of the samples showing no measurable turbidity was subcultured on TSA plates (alliquots were diluted to provide fewer than 300 CFU). Colonies that grew on the subculture after overnight incubation were counted and the number of CFU/mL in the samples were calculated. The calculated values were compared to the number of CFU/mL in the original inoculum.

E. coli (ATCC 10798) [2] = test: Sensitization to erythromycin or novobiocin (outer membrane permeabilization, FIC); format: cell-based, Escherichia coli; settings: for concentration required to lower the MIC of erythromycin from 70 µg/mL to 1 µg/mL: Table 2; for concentration required to lower the MIC of erythromycin from 70 µg/mL to 1 µg/mL / MBC: E. coli (ATCC 10798); for MBC: Escherichia coli; for (a) Concentration required to lower the MIC of erythromycin from 70 to 1 µg/mL / (b) MBC with 1 µg/mL erythromycin / FIC^c (FIC values with erythromycin) / (d) Concentration required to lower the MIC of novobiocin from >500 to 1 µg/mL / FIC^c (FIC values with novobiocin): Table 9, Escherichia coli (ATCC 10798)
Protocol: (§4) FICs can be performed by checkerboard titrations of compounds in one dimension of a microtiter plate, and of antibiotics in the other dimension, for example. The FIC is calculated by looking at the impact of one antibiotic on the MIC of the other and vice versa. […] Preferably, an FIC of less than 0.5 is obtained for synergism. As used herein, FIC can be determined as follows: FIC = (MIC(compound in combination))/(MIC(compound alone)) + (MIC(antibiotic in combination))/(MIC(antibiotic alone)) [formula]
(§5) Aliquots of 1 mL of the suspension were added to test tubes containing 1 mL TSB and incrementally varied concentrations of cholic acid derivatives and/or erythromycin or novobiocin. In the sensitization experiments, erythromycin or novobiocin were added 15 minutes later than the cholic acid derivatives. The samples were subjected to stationary incubation at 37°C for 24 hours. Sample turbidity was determined by measuring absorption at 760 nm (HP 8453 UV-Visible Chemstation, Hewlett Packard). Additionally, an alliquot from each of the samples showing no measurable turbidity was subcultured on TSA plates (alliquots were diluted to provide fewer than 300 CFU). Colonies that grew on the subculture after overnight incubation were counted and the number of CFU/mL in the samples were calculated. The calculated values were compared to the number of CFU/mL in the original inoculum.
They were also tested for the ability to permeabilize the outer membrane of Gram-negative bacteria, causing sensitization to hydrophobic antibiotics that cannot cross the outer membrane. The permeabilization of the outer membrane was measured using erythromycin and novobiocin.

[3] = tested on: Pseudomonas aeruginosa ATCC 27853; test: MIC and MBC measurement; format: cell-based; settings: ATCC27853, Table 6, P. aureginosa (ATCC 27853)
Protocol: as §1, §2, §3

[4] = tested on: Pseudomonas aeruginosa ATCC 27853; test: Sensitization to erythromycin, novobiocin or rifampicin (permeabilization, FIC); format: cell-based; settings: Table 7; P. aureginosa (ATCC 27853); with erythromycin
Protocol: as §4, §5
Concentrations of 0.5, 1.0 or 3.0 µg/mL of these antibiotics were used, and the concentrations of the cholic acid derivatives required to inhibit bacterial growth of Gram-negative strains were determined.

[5] = Escherichia coli, ATCC10798, Table 1, E. coli (ATCC 10798), read-out: MIC
[6] = Escherichia coli, ATCC10798, Table 1, E. coli (ATCC 10798), read-out: MBC
[7] = Table 9, Escherichia coli (ATCC 10798)
[8] = ATCC10798, Table 2, with erythromycin

| MIC (E. coli (ATCC 10798) [1]; [5]) [µg/mL] | MIC [3] [µg/mL] | MIC (E. coli (ATCC 10798) [1]; [7]) [µg/mL] | MIC (E. coli (ATCC 10798) [1]; ATCC10798, Table 9, Escherichia coli (ATCC 10798), read-out: MIC) [µg/mL] | Structure (SMILES) | concentration required to lower the MIC of erythromycin from 70 µg/mL to 1 µg/mL (E. coli (ATCC 10798) [2]; with erythromycin) [µg/mL] | concentration required to lower the MIC of erythromycin from 240 µg/mL to 5 µg/mL [4] [µg/mL] | MBC (E. coli (ATCC 10798) [1]; [6]) [µg/mL] | MBC (E. coli (ATCC 10798) [1]; [7]) [µg/mL] | MBC (E. coli (ATCC 10798) [2]; [8]) [µg/mL] | (a) Concentration required to lower the MIC of erythromycin from 70 to 1 µg/mL (E. coli (ATCC 10798) [2]) [µg/mL] | (b) MBC with 1 µg/mL erythromycin (E. coli (ATCC 10798) [2]) [µg/mL] | FIC^c (FIC values with erythromycin) (E. coli (ATCC 10798) [2]) | MBC (E. coli (ATCC 10798) [2]; ATCC10798, Table 3, with novobiocin) [µg/mL] | (d) Concentration required to lower the MIC of novobiocin from >500 to 1 µg/mL (E. coli (ATCC 10798) [2]) [µg/mL] | FIC^c (FIC values with novobiocin) (E. coli (ATCC 10798) [2]) | MBC (E. coli (ATCC 10798) [1]; ATCC10798, Table 9, Escherichia coli (ATCC 10798), read-out: MBC) [µg/mL] |
| --- | --- | --- | --- | --- | --- | --- | --- | --- | --- | --- | --- | --- | --- | --- | --- | --- |
| 46 (≈ 73.4 µM) | 50 (≈ 79.7 µM) |  |  | C[C@H](CCCN(C)Cc1ccccc1)[C@H]1CC[C@H]2[C@@H]3[C@H](OCCN)C[C@@H]4C[C@@H](OCCN)CC[C@]4(C)[C@H]3C[C@H](OCCN)[C@]12C [Compound 8] | 10 | 40 |  |  |  |  |  |  |  |  |  |  |
| 3 (≈ 4.42 µM) | 8 (≈ 11.8 µM) | 3.0 (≈ 4.42 µM) |  | CCCCCCCCOCCC[C@@H](C)[C@H]1CC[C@H]2[C@@H]3[C@H](OCCCN)C[C@@H]4C[C@H](OCCCN)CC[C@]4(C)[C@H]3C[C@H](OCCCN)[C@]12C [Compound 9] | 3 | 5 | 10 (≈ 14.7 µM) | 10 (≈ 14.7 µM) | 3 | 3.0 | 3.0 | 1.0 |  |  |  |  |
| 140 (≈ 267 µM) |  | 140 (≈ 267 µM) |  | CC(O)[C@H]1CC[C@H]2[C@@H]3[C@H](OCCCN)C[C@@H]4C[C@H](OCCCN)CC[C@]4(C)[C@H]3C[C@H](OCCCN)[C@]12C (stereo partly drawn) [Compound 11] | 40 |  | > 160 | >160 | > 160 | 20 | 180 | 0.16 | 140 | 40 | 0.29 |  |
| 4 (≈ 3.59 µM) |  |  |  | C[C@H](CCCOCCC[C@@H](C)[C@H]1CC[C@H]2[C@@H]3[C@H](OCCCN)C[C@@H]4C[C@H](OCCCN)CC[C@]4(C)[C@H]3C[C@H](OCCCN)[C@]12C)[C@H]1CC[C@H]2[C@@H]3[C@H](OCCCN)C[C@@H]4C[C@H](OCCCN)CC[C@]4(C)[C@H]3C[C@H](OCCCN)[C@]12C [Compound 12] | 1.5 |  | 4 (≈ 3.59 µM) |  | 2.5 |  |  |  |  |  |  |  |
|  |  |  | 70 (≈ 130 µM) | C[C@H](CO)[C@H]1CC[C@H]2[C@@H]3[C@H](OCCCN)C[C@@H]4C[C@H](OCCCN)CC[C@]4(C)[C@H]3C[C@H](OCCCN)[C@]12C [Compound 108] |  |  |  |  |  | 4.0 | 140 | 0.071 |  | 12 | 0.17 | 140 (≈ 260 µM) |

| Structure (SMILES) | MIC (E. coli (ATCC 10798) [1]; [5]) [µg/mL] | MIC [3] [µg/mL] | MIC (E. coli (ATCC 10798) [1]; [7]) [µg/mL] | MIC (E. coli (ATCC 10798) [1]; ATCC10798, Table 9, Escherichia coli (ATCC 10798), read-out: MIC) [µg/mL] | concentration required to lower the MIC of erythromycin from 70 µg/mL to 1 µg/mL (E. coli (ATCC 10798) [2]; with erythromycin) [µg/mL] | concentration required to lower the MIC of erythromycin from 240 µg/mL to 5 µg/mL [4] [µg/mL] | MBC (E. coli (ATCC 10798) [1]; [6]) [µg/mL] | MBC (E. coli (ATCC 10798) [1]; [7]) [µg/mL] | MBC (E. coli (ATCC 10798) [2]; [8]) [µg/mL] | (a) Concentration required to lower the MIC of erythromycin from 70 to 1 µg/mL (E. coli (ATCC 10798) [2]) [µg/mL] | (b) MBC with 1 µg/mL erythromycin (E. coli (ATCC 10798) [2]) [µg/mL] | FIC^c (FIC values with erythromycin) (E. coli (ATCC 10798) [2]) | MBC (E. coli (ATCC 10798) [2]; ATCC10798, Table 3, with novobiocin) [µg/mL] | (d) Concentration required to lower the MIC of novobiocin from >500 to 1 µg/mL (E. coli (ATCC 10798) [2]) [µg/mL] | FIC^c (FIC values with novobiocin) (E. coli (ATCC 10798) [2]) | MBC (E. coli (ATCC 10798) [1]; ATCC10798, Table 9, Escherichia coli (ATCC 10798), read-out: MBC) [µg/mL] |
| --- | --- | --- | --- | --- | --- | --- | --- | --- | --- | --- | --- | --- | --- | --- | --- | --- |
| C[C@H](CCCN(C)Cc1ccccc1)[C@H]1CC[C@H]2[C@@H]3[C@H](OCCCCN)C[C@@H]4C[C@H](OCCCCN)CC[C@]4(C)[C@H]3C[C@H](OCCCCN)[C@]12C [Compound 3] | 6 (≈ 8.44 µM) | 16 (≈ 22.5 µM) |  |  | 1.5 | 6 |  |  |  |  |  |  |  |  |  |  |
